From US20110269626A1, “HERBICIDAL COMPOSITIONS COMPRISING HPPD-INHIBITORS AND METHODS OF CONTROLLING WEEDS IN TURFGRASSES” (priority 2008, published 2011)

Assays:
Assay type in all cases: in vivo
warm season turfgrasses = assay: Safening of liquid mesotrione formulation on warm season turfgrasses (conclusion from Tables 1 and 2); settings: safener applied in combination with a liquid formulation of mesotrione to warm season turfgrasses
Description: (§1) A liquid formulation of mesotrione (Callisto®) was applied to bermudagrass (Cynodon dactylon×C. dactylon) and zoysia grass (Zoysia matrella) by spray application, with and without safeners, at various rates as show in the table below. Assessments were made at 7, 14 and 21 days after application, to determine percentage growth inhibition, an percentage toxicity (chlorosis and/or burning).

[1] = tested on: bermudagrass (Cynodon dactylon×C. dactylon); assay: Spray application of liquid mesotrione formulation (Callisto) with and without safeners to bermudagrass; percentage toxicity (chlorosis and/or burning)
Description: as §1

[2] = tested on: zoysia grass (Zoysia matrella); assay: Spray application of liquid mesotrione formulation (Callisto) with and without safeners to zoysia grass; percentage toxicity (chlorosis and/or burning)
Description: as §1

[3] = herbicide 140 g ai/ha, safener 70 g ai/ha or none, 7 DAA
[4] = herbicide 140 g ai/ha, safener 70 g ai/ha or none, 14 DAA
[5] = herbicide 140 g ai/ha, safener 70 g ai/ha or none, 21 DAA
[6] = herbicide 280 g ai/ha, safener 140 g ai/ha or none, 7 DAA
[7] = herbicide 280 g ai/ha, safener 140 g ai/ha or none, 14 DAA
[8] = herbicide 280 g ai/ha, safener 140 g ai/ha or none, 21 DAA

safening (warm season turfgrasses) | SMILES | Percentage toxicity [1, 3] [%] | Percentage toxicity [1, 4] [%] | Percentage toxicity [1, 5] [%] | Percentage toxicity [1, 6] [%] | Percentage toxicity [1, 7] [%] | Percentage toxicity [1, 8] [%] | Percentage toxicity [2, 3] [%] | Percentage toxicity [2, 4] [%] | Percentage toxicity [2, 5] [%] | Percentage toxicity [2, 6] [%] | Percentage toxicity [2, 7] [%] | Percentage toxicity [2, 8] [%]
Particularly good safening | CNC(=O)Nc1ccc(S(=O)(=O)NC(=O)c2ccccc2OC)cc1 [Formula IV] |  |  |  |  |  |  |  |  |  |  |  | 
 | CS(=O)(=O)c1ccc(C(=O)C2C(=O)CCCC2=O)c([N+](=O)[O-])c1 [Mesotrione, 2-(2′-nitro-4′-methylsulphonylbenzoyl)-1,3-cyclohexanedione] | 30 | 10 | 20 | 60 | 50 | 50 | 10 | 40 | 50 | 15 | 50 | 70
